Test results published in article PMC12459020, “Chemical Probes that Target a Dissociative LuxR-Type Quorum Sensing Receptor in Gram-Negative Bacteria” (ACS Chemical Biology, 2025).
“Also recorded” adds a separate entry of the source. Read-outs that look alike come from different tables or passages of the source.

Tests used:
[1] = target: T1, EsaR (Pantoea stewartii subsp. stewartii, UniProt P54293); assay: cell-based; settings: for activation at 100 µM / inhibition at 100 µM: 3.5 h; for activation at 100 µM: read-out: EsaR-repressed (pesaR) [%] agonism; for inhibition at 100 µM: read-out: EsaR-repressed (pesaR) antagonism
T1 construct: expressed in transfected cells; host or cells: E. coli JLD271 (K12 ΔsdiA), arabinose-induced pJN105-esaR
T1 sequence (P54293 whole entry): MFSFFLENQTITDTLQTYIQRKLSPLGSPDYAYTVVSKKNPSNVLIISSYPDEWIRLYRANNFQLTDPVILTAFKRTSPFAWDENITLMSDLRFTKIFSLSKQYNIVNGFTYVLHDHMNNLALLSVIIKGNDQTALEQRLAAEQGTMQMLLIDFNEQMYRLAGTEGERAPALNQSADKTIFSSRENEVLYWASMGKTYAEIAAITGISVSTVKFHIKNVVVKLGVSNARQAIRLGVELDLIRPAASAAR
From the text: (§1) EsaR transcriptional activation and repression were examined using E. coli and P. stewartii reporters (strains and plasmids listed in Table S1; see Methods section for assay details). […] We constructed reporters in E. coli based on previously reported EsaR reporters (Table S1). Each strain contained an EsaR expression plasmid (pJN105-esaR) and a reporter plasmid with either an EsaR-activated promoter (pesaS) or an EsaR-repressed promoter (pesaR) upstream of luxABCDE or GFP.
(§2) Gibson assembly was used to create all constructs. Plasmid pJN105-esaR was created by amplifying esaR from pAC-esaR and inserting it into pJN105. pesaSlux was created by inserting pesaS, amplified from pPesaR-AC:gfp, into the pCS-pesaRlux backbone. The pesaR promoter was amplified from pCS-pesaRlux and inserted into the pPesaR-AC:gfp backbone to create pesaR:GFP. P. stewartii reporter strains were created by transforming pesaR:GFP or pPesaR-AC:gfp into ESN51 by conjugation using E. coli S17 λpir as the donor strain. See SI for details of E. coli ExpR2 reporter construction.
(§3) Overnight cultures were diluted 1:10 in LB medium with appropriate antibiotics and grown at 37 °C (200 rpm) to an OD600 of 0.22–0.27 before induction with 4 mg mL^–1 arabinose. OD600 was measured by placing 200 μL of culture into a 96-well plate and reading optical density using the BioTek Synergy 2 plate reader. Assays were performed in technical triplicate in clear-bottom, white and clear-bottom, black 96-well microtiter plates (Corning Costar 3903 and 3904) for luminescence and fluorescence reporters, respectively. Compounds were dissolved in DMSO, and 2 μL of this stock, or DMSO as a negative control, was added to each well prior to adding 198 μL of induced culture. Plates were incubated at 37 °C (200 rpm) for 3.5 h. Each well was mixed by pipetting before reading OD600 and either luminescence or fluorescence. Single-point screens were performed with one or two biological replicates, and all dose–response curves were performed in biological triplicate. EC50 values were calculated based on a nonlinear regression of log(concentration) vs response (three parameters) using GraphPad Prism 9 software.

[2] = target: T1, EsaR; assay: cell-based; settings: for activation at 100 µM / inhibition at 100 µM: 3.5 h; for activation at 100 µM: read-out: EsaR-activated (pesaS) [%] agonism; for inhibition at 100 µM: read-out: EsaR-activated (pesaS) antagonism; for EsaR agonism, in words / EsaR antagonism, in words: E. coli EsaR reporters; for EsaR agonism, in words: primary screen at 100 μM; for EsaR antagonism, in words: competed against OHHL at approx. EC50; for EsaR agonism at 100 μM (bound stated in text): E. coli EsaR reporter
From the text: as §1, §2, §3

[3] = test system: LuxR; settings: cited from earlier work; for LuxR [%] (agonism, activation): compounds at 200 μM, luminescence in V. fischeri ES114 (ΔluxI), ref Palmer et al., 2011 (main ref 44, SI ref 6); for LuxR antagonism: 5 µM compound against 5 µM OHHL, negative values indicate potential activators, ref 6 (SI; Palmer et al., 2011)
[4] = test system: ExpR1; settings: cited from earlier work; for ExpR1 [%] (agonism, activation): compounds at 200 μM, cellulase activity in P. versatile AC5117, ref Palmer et al., 2011 (main ref 44, SI ref 6); for ExpR1 antagonism: 5 µM compound against 5 µM OHHL, negative values indicate potential activators, ref 6 (SI; Palmer et al., 2011)
[5] = test system: ExpR2; settings: cited from earlier work; for ExpR2 [%] (agonism, percent activation): compounds at 200 μM, cellulase activity in P. versatile AC5099, ref Palmer et al., 2011 (main ref 44, SI ref 6); for ExpR2 antagonism (percent inhibition): 5 µM compound against 5 µM OHHL, negative values indicate potential activators
[6] = ref 6 (SI; Palmer et al., 2011)

Structure (SMILES) | activation at 100 µM [1] [%] | activation at 100 µM [2] [%] | LuxR [%] (agonism, activation) [3] | ExpR1 [%] (agonism, activation) [4] | ExpR2 [%] (agonism, percent activation) [5] | inhibition at 100 µM [1] [%] | inhibition at 100 µM [2] [%] | LuxR antagonism [3] [%] | ExpR1 antagonism [4] [%] | ExpR2 antagonism (percent inhibition) [5, 6] [%] | further results
CCCS(=O)(=O)N[C@H]1CCOC1=O [A8] | – | – | – | – | – | – | – | – | – | – | EC50 [1]: ≥ 71 µM; EC50 [2]: ≥ 66 µM
CCCCCS(=O)(=O)N[C@H]1CCOC1=O [A10] | – | – | – | – | – | – | – | – | – | – | EC50 [1]: 17 µM; EC50 [2]: 17 µM; fold less potent than hexanoyl HL in EsaR ([2]; E. coli EsaR reporter EC50 values): about 3 fold
O=C(N[C@H]1CCOC1=O)c1ccc(Br)cc1 [B6] | 11 | -4 | 2 | 2 | 7 | – | – | – | – | – | –
O=C(N[C@H]1CCOC1=O)c1ccccc1 [B8] | 6 | 2 | 2 | 0 | 6 | -4 | -4 | 34 | 37 | 23 | –
O=C(CCc1ccccc1)N[C@H]1CCOC1=O [B9] | 6 | 23 | 3 | 4 | 12 | -10 | -24 | 44 | 48 | 37 | –
O=C(/C=C/c1ccccc1)N[C@H]1CCOC1=O [B10] | -2 | 12 | 3 | 4 | 18 | 17 | -6 | 48 | 57 | 49 | –
CCCC(=O)N[C@H]1CCOC1=O [BHL, reference compound] | 6 | 26 | 0 | 0 | 17 | -46 | -22 | 43 | 48 | 19 | –
O=C(Cc1ccccc1)N[C@H]1CCOC1=O [C1] | 7 | 17 | 3 | 6 | 21 | -61 | -13 | 14 | 4 | 11 | –
O=C(Cc1ccc(F)cc1)N[C@H]1CCOC1=O [C2] | -2 | 4 | 2 | 4 | 14 | -50 | -14 | 59 | 64 | 23 | –
O=C(Cc1ccccc1F)N[C@H]1CCOC1=O [C4] | -3 | -1 | 2 | 8 | 24 | 15 | -9 | 49 | 44 | 27 | –
O=C(Cc1ccc(Cl)cc1)N[C@H]1CCOC1=O [C5, 4-Cl PHL] | 3 | -1 | 3 | 5 | 29 | 2 | -3 | 75 | 78 | 48 | EsaR agonism, in words [2]: nearly inactive
O=C(Cc1cccc(Cl)c1)N[C@H]1CCOC1=O [C6] | 29 | 49 | 61 | 49 | 81 | -58 | -40 | 65 | 63 | 54 | EC50 [1]: ≥ 216 µM; EC50 [2]: ≥ 125 µM
O=C(Cc1ccccc1Cl)N[C@H]1CCOC1=O [C7] | 5 | 10 | 6 | 9 | 28 | -26 | 1 | 53 | 57 | 41 | –
O=C(Cc1cccc(Br)c1)N[C@H]1CCOC1=O [C8] | 30 | 55 | 70 | 63 | 97 | -65 | -43 | 68 | 73 | 59 | –
O=C(Cc1ccccc1Br)N[C@H]1CCOC1=O [C9] | 0.4 | -2 | 12 | 9 | 32 | -14 | -8 | 47 | 49 | 32 | –
CCCCCCCCCC(=O)NC1CCCC1 [C10-CPA, reference compound] | – | – | – | – | – | – | – | – | – | – | EsaR antagonism, in words [2]: did not show antagonism; also recorded: None of these compounds antagonized EsaR
O=C(Cc1ccc(I)cc1)N[C@H]1CCOC1=O [C10] | 0.4 | 7 | – | 6 | 19 | 25 | -5 | – | 73 | 68 | IC50 ([5]; previously reported phenotypic reporter data, ref 6 (SI; Palmer et al., 2011)): 900 nM
O=C(CCc1cccc([N+](=O)[O-])c1)N[C@H]1CCOC1=O [E38] | – | – | – | – | – | – | – | – | – | – | EC50 [2]: ≥ 64 µM
O=C(Cc1cccc([N+](=O)[O-])c1)NC1CCCC1 [F18] | – | – | – | – | – | – | – | – | – | – | EsaR antagonism, in words [2]: None of these compounds antagonized EsaR
Cc1ccc(CS(=O)(=O)N[C@H]2CCOC2=O)cc1 [GAF 13] | – | – | – | – | – | – | – | – | – | – | EsaR agonism at 100 μM (bound stated in text) [2]: ≤ 50%
O=C1OCC[C@@H]1NS(=O)(=O)Cc1cccc(Cl)c1 [GAF 33] | – | – | – | – | – | – | – | – | – | – | EsaR agonism at 100 μM (bound stated in text) [2]: ≤ 50%
O=C1OCC[C@@H]1NS(=O)(=O)Cc1cccc(Br)c1 [GAF 41] | – | – | – | – | – | – | – | – | – | – | EsaR agonism at 100 μM (bound stated in text) [2]: ≤ 50%
O=C1OCC[C@@H]1NS(=O)(=O)c1ccc(Cl)c(Cl)c1Cl [GAF 45] | – | – | – | – | – | – | – | – | – | – | EC50 [1]: 4.9 µM; EC50 [2]: 4.7 µM
O=C1OCC[C@@H]1NS(=O)(=O)c1cc(Cl)cc(Cl)c1 [GAF 50] | – | – | – | – | – | – | – | – | – | – | EC50 [1]: 24 µM; EC50 [2]: 24 µM
CC(=O)CC(=O)N[C@H]1CCOC1=O [OBHL, reference compound] | – | – | – | – | – | – | – | – | – | – | EC50 [1]: 97 µM
CCCC(=O)NC1CCCC1 [RN4] | – | – | – | – | – | – | – | – | – | – | EsaR antagonism, in words [2]: None of these compounds antagonized EsaR
O=C(NC1CCCC1)C1CCC1 [RN13] | – | – | – | – | – | – | – | – | – | – | EsaR antagonism, in words [2]: None of these compounds antagonized EsaR; EsaR agonism, in words [2]: moderate agonist
O=C(COc1ccc(I)cc1)NC1CCCC1 [RN17] | – | – | – | – | – | – | – | – | – | – | EsaR antagonism, in words [2]: None of these compounds antagonized EsaR
CC(C)CC(=O)NC1CCCC1 [RN20] | – | – | – | – | – | – | – | – | – | – | EsaR antagonism, in words [2]: None of these compounds antagonized EsaR
CCCCCCCCCC(=O)CC(=O)Nc1ccccc1 [V-06–018, reference compound] | – | – | – | – | – | – | – | – | – | – | EsaR antagonism, in words, EsaR-repressed promoter ([1]; E. coli reporter, competed against OHHL at approx. EC50): inactive as EsaR antagonists; EsaR antagonism, in words [2]: inactive as EsaR antagonists
